The text below walks through data of PubChem BioAssay (NCI).

Some test systems named below: ACHN renal; IGROV1 ovarian; NCI-H226 lung; OVCAR-5 ovarian; OVCAR-8 ovarian; SK-MEL-5 melanoma; TK-10 renal; U251 CNS; K-562 leukemia; MOLT-4 leukemia.
Experiment in all cases: NCI-60 cell line screen, 48 h

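The compound was tested at five concentrations on cells cultured in 96-well plates, with a 48-hour exposure period. GI50: concentration for 50% inhibition of growth. TGI: total growth inhibition.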 Some results are limits rather than exact numbers.

`CCN1CCC(CCOC)(CN2c3ccccc3Sc3ccc(Cl)cc32)C1` (configuration not stated): the GI50 in the experiment on ACHN renal was 1780 nM; in the experiment on IGROV1 ovarian, 1970 nM; in the experiment on NCI-H226 lung it was 1920 nM; with OVCAR-5 ovarian, 1830 nM; with OVCAR-8 ovarian, 2070 nM; in the experiment on SK-MEL-5 melanoma it was 1690 nM. Also, the GI50 with TK-10 renal was 2030 nM; in the experiment on U251 CNS, 1890 nM. In addition, the TGI in the experiment with ACHN renal turned out to be 3.44 µM; in the experiment on IGROV1 ovarian, 3.99 µM; in the experiment with NCI-H226 lung, 4.67 µM; with OVCAR-5 ovarian, 3.88 µM; with OVCAR-8 ovarian, 4.14 µM; in the experiment on SK-MEL-5 melanoma, 3.07 µM. Moreover, the TGI was found to be 3.67 µM with TK-10 renal and 3.64 µM in the experiment with U251 CNS.
As to `COc1cc2nc(N3CCCC3)nc(NCC3CCCCC3)c2cc1OC`, the GI50 in the experiment on ACHN renal is 1440 nM; with IGROV1 ovarian, 1480 nM; with K-562 leukemia it was 334 nM; with NCI-H226 lung, 1940 nM; with OVCAR-5 ovarian it was 1590 nM; in the experiment on OVCAR-8 ovarian, 1590 nM. Moreover, the results for the GI50 with SK-MEL-5 melanoma, in the experiment on TK-10 renal and in the experiment with U251 CNS were 1350 nM, 1730 nM and 1210 nM, respectively. For the same compound, the TGI with ACHN renal was 2.75 µM; with IGROV1 ovarian it was 3.06 µM; in the experiment on K-562 leukemia, 2.1 µM; in the experiment on NCI-H226 lung, 4.05 µM; in the experiment on OVCAR-5 ovarian, 2.96 µM; with OVCAR-8 ovarian it was 3.52 µM. Besides, the values for the TGI in the experiment with SK-MEL-5 melanoma, in the experiment on TK-10 renal and in the experiment with U251 CNS were 2.68 µM, 3.28 µM and 2.64 µM, respectively.
As to `Cc1ccc(-c2cc(-c3ccc(C)cc3)nc(NCCNc3ccnc4cc(Cl)ccc34)n2)cc1`, the GI50 with ACHN renal was 1680 nM; in the experiment on IGROV1 ovarian it was 1520 nM; in the experiment on K-562 leukemia, 1820 nM; in the experiment with NCI-H226 lung, 1800 nM; with OVCAR-5 ovarian, 1650 nM; in the experiment on OVCAR-8 ovarian it was 1880 nM. Further, the GI50 was 1830 nM in the experiment on SK-MEL-5 melanoma, 1780 nM in the experiment on TK-10 renal and 1720 nM in the experiment with U251 CNS. Further, the TGI in the experiment with ACHN renal amounted to 3.13 µM; in the experiment with IGROV1 ovarian, 3.16 µM; in the experiment on K-562 leukemia it was 4.5 µM; in the experiment with NCI-H226 lung, 4.18 µM; in the experiment with OVCAR-5 ovarian it was 3.07 µM; in the experiment on OVCAR-8 ovarian, 3.88 µM. The TGI amounted to 3.44 µM in the experiment on SK-MEL-5 melanoma, 3.47 µM in the experiment with TK-10 renal and 3.36 µM in the experiment on U251 CNS.
For `COc1ccc(C2=C(Cl)c3cc(OC)c(OC)cc3C2Cl)cc1OC` (configuration not stated), the TGI in the experiment with ACHN renal was 38.3 µM; in the experiment on IGROV1 ovarian, 44.2 µM; with K-562 leukemia, 48.6 µM; in the experiment with MOLT-4 leukemia it was 15.4 µM; in the experiment on OVCAR-5 ovarian, 30.2 µM; in the experiment with OVCAR-8 ovarian, 39 µM. The figures for the TGI with SK-MEL-5 melanoma, with TK-10 renal and in the experiment with U251 CNS were 28.5 µM, 46.3 µM and 29 µM, respectively.
As to `CCOC(=O)C(=O)Nc1c(CC)cccc1C(C)C`, the TGI with ACHN renal, with IGROV1 ovarian, in the experiment with NCI-H226 lung, in the experiment on OVCAR-5 ovarian, in the experiment with OVCAR-8 ovarian and in the experiment on TK-10 renal was more than 100 µM each time. Moreover, in the experiment with U251 CNS, the TGI is more than 100 µM.
On to `CS(=O)(=O)Oc1cccc(/C=N/N=C(\N)NO)c1`, for which the TGI was 66.1 µM in the experiment with ACHN renal; more than 100 µM with IGROV1 ovarian; more than 100 µM in the experiment with K-562 leukemia; 95.6 µM in the experiment on NCI-H226 lung; more than 100 µM with OVCAR-5 ovarian; more than 100 µM in the experiment with OVCAR-8 ovarian. For the same compound, the TGI in the experiment on TK-10 renal is 27.9 µM; with U251 CNS, more than 100 µM.
As to `C=C1CC[C@@H]2[C@](C)(COC(C)=O)[C@@H](O)CC[C@@]2(C)[C@@H]1COc1ccc2ccc(=O)oc2c1`, the GI50 in the experiment with ACHN renal is more than 100000 nM; in the experiment on IGROV1 ovarian, more than 100000 nM; in the experiment with K-562 leukemia, 62600 nM; with MOLT-4 leukemia, more than 100000 nM; in the experiment with OVCAR-5 ovarian, more than 100000 nM; in the experiment with OVCAR-8 ovarian, more than 100000 nM. Further, the GI50 with SK-MEL-5 melanoma is more than 100000 nM; in the experiment with TK-10 renal it was more than 100000 nM; in the experiment on U251 CNS it was 61200 nM. In addition, the TGI in the experiment on ACHN renal, in the experiment on IGROV1 ovarian, with K-562 leukemia, in the experiment with MOLT-4 leukemia, in the experiment on OVCAR-5 ovarian and in the experiment on OVCAR-8 ovarian was more than 100 µM in each case. The TGI with SK-MEL-5 melanoma, with TK-10 renal and in the experiment with U251 CNS was more than 100 µM in each case.
Turning to `CCC1CN2CCc3cc(OC)c(OC)cc3C2CC1CC1c2cc(OC)c(OC)cc2CCN1C(=O)C1CCCN1C(=O)OCc1ccccc1` (configuration not stated), the TGI was determined as 32.1 µM in the experiment on ACHN renal; 33.4 µM in the experiment with IGROV1 ovarian; 36 µM with K-562 leukemia; 30.9 µM in the experiment on NCI-H226 lung; 34.2 µM with OVCAR-5 ovarian; 31.7 µM in the experiment with OVCAR-8 ovarian. In addition, the TGI came out at 28.8 µM in the experiment with SK-MEL-5 melanoma, 38.6 µM in the experiment with TK-10 renal and 28.3 µM in the experiment with U251 CNS.
With `CC1=C(CCC(C)N(C)Cc2ccc(OCCCN3CCCC3)cc2)C(C)(C)CCC1` (configuration not stated), the GI50 is 3290 nM in the experiment with ACHN renal; 4030 nM in the experiment on IGROV1 ovarian; 1670 nM with K-562 leukemia; 18800 nM in the experiment on NCI-H226 lung; 3200 nM in the experiment with OVCAR-5 ovarian; 5750 nM in the experiment with OVCAR-8 ovarian. Further, the GI50 in the experiment on SK-MEL-5 melanoma was 1750 nM; with TK-10 renal, 12500 nM; in the experiment on U251 CNS, 2460 nM. In addition, the TGI in the experiment with ACHN renal amounted to 11.3 µM; in the experiment on IGROV1 ovarian it was 16.6 µM; with K-562 leukemia, 4.06 µM; in the experiment on NCI-H226 lung, 37.3 µM; in the experiment with OVCAR-5 ovarian, 11.1 µM; in the experiment with OVCAR-8 ovarian, 19.9 µM. Besides, the TGI came to 3.15 µM with SK-MEL-5 melanoma, 26.7 µM in the experiment on TK-10 renal and 6.38 µM in the experiment on U251 CNS.
Consider `CCN=C1C=CC(=C(c2ccc(N)cc2)c2ccc(N(CC)CC)c(C)c2)C=C1`, for which the GI50 is 422 nM in the experiment on ACHN renal; 537 nM with IGROV1 ovarian; 259 nM with K-562 leukemia; 394 nM in the experiment on MOLT-4 leukemia; 317 nM with OVCAR-5 ovarian; 208 nM in the experiment with SK-MEL-5 melanoma. Also, the GI50 was 396 nM with TK-10 renal and 124 nM with U251 CNS. Further, the TGI turned out to be 2.66 µM in the experiment on ACHN renal; 4.01 µM in the experiment on IGROV1 ovarian; 1.72 µM in the experiment on K-562 leukemia; 5.12 µM in the experiment on MOLT-4 leukemia; 2.07 µM in the experiment on OVCAR-5 ovarian; 0.44 µM with SK-MEL-5 melanoma. The TGI was determined as 10.7 µM in the experiment on TK-10 renal and 1.59 µM in the experiment on U251 CNS.
